Experimental data from patent US20110257116A1, “BIOSURFACTANT-CONTAINING SKIN CARE COSMETIC AND SKIN ROUGHNESS-IMPROVING AGENT” (National Institute Of Advanced Industrial Science And …, priority 2005, published 2011).
Entries after “also recorded” stand apart in the source; their conditions may differ.

Legend:
[1] = tested on: three-dimensional skin model (Test Skin LSE-002 or 003; Toyobo) treated with SDS; experiment: Skin roughness model: three-dimensional skin model defatted with SDS, cell viability by MTT (absorbance of formazan); type: cell-based; details: for cell viability (absorbance of formazan): dissolved in olive oil, added on Test Skin treated with 1% SDS, left overnight, MTT kit
[2] = Dispersion stability test in water (absorbance at 650 nm); type: physicochemical; details: FIG. 6; for change in turbidity of the water suspension: after 6 hours
Protocol: MEL-B or MEL-C at a concentration of 10 mg/mL was added to water, stirred and suspended. Its absorbance at 650 nm was measured.

Substance	cell viability (absorbance of formazan) [1]	skin roughness improvement compared with MEL-A ([1]; FIG. 4 legend, three-dimensional skin model treated with SDS, viability)	change in turbidity of the water suspension [2]	dispersion stability ([2]; 10 mg/mL in water, stirred and suspended, absorbance at 650 nm)
mannosylerythritol lipid A [MEL-A]	increased in a MEL-A-concentration-dependent manner	–	–	–
mannosylerythritol lipid B [MEL-B]	increased in a MEL-B-concentration-dependent manner	increased skin roughness improvement over MEL-A	little observable change in turbidity	–
mannosylerythritol lipid C [MEL-C]	increased in a MEL-C-concentration-dependent manner	–	little observable change in turbidity	particularly excellent in dispersion stability; also recorded: more excellent than MEL-A in water dispersion stability
